Assay results: patent US10189841B2, “Purinones as ubiquitin-specific protease 1 inhibitors” (Forma Therapeutics, Inc., priority 2015, dated 2019)

Target: USP1 (construct USP1 (I-785, GG670, 671AA)/UAF1 (I-677)-Flag) (Homo sapiens (Human), UniProt O94782, G670A/G671A)
Test: Ubiquitin-Rhodamine 110 assay for USP1 activity
Format: biochemical
Conditions: USP1/UAF1 25 pM, Ub-Rh110 25 nM, 30 min preincubation
How it was run: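 Ub-Rh110 (25 nM, ≪Km) cleavage read at ex 485/em 535 in Tris pH 8.0, CaCl2, GSH, Prionex, Triton X-100. The screen used 10 µM compound, 100 pM USP1/UAF1 and 45 min at RT.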

Chain of USP1 (construct USP1 (I-785, GG670, 671AA)/UAF1 (I-677)-Flag) (O94782 whole entry G670A/G671A): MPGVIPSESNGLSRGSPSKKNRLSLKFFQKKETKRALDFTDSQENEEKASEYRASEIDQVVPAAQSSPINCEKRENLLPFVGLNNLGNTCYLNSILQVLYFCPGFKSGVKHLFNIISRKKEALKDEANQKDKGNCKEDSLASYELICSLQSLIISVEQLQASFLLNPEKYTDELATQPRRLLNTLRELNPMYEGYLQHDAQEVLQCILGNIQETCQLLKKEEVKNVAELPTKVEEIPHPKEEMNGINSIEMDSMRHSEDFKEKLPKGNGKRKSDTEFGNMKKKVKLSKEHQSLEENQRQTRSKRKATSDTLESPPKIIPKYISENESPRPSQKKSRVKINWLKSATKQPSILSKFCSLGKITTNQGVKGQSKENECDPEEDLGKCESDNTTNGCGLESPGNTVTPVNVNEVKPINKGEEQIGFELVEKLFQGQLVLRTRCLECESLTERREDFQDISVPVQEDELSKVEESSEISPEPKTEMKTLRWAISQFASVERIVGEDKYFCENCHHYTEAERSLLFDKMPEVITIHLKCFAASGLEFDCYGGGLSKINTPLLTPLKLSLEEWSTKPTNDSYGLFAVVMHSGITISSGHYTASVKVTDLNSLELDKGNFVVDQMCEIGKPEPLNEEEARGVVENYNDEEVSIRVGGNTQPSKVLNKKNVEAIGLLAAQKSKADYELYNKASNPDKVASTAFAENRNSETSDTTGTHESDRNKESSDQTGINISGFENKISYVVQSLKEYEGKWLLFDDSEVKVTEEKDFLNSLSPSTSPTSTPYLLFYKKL
Chain of USP1 (construct USP1 (I-785, GG670, 671AA)/UAF1 (I-677)-Flag) (Q8TAF3 whole entry partner): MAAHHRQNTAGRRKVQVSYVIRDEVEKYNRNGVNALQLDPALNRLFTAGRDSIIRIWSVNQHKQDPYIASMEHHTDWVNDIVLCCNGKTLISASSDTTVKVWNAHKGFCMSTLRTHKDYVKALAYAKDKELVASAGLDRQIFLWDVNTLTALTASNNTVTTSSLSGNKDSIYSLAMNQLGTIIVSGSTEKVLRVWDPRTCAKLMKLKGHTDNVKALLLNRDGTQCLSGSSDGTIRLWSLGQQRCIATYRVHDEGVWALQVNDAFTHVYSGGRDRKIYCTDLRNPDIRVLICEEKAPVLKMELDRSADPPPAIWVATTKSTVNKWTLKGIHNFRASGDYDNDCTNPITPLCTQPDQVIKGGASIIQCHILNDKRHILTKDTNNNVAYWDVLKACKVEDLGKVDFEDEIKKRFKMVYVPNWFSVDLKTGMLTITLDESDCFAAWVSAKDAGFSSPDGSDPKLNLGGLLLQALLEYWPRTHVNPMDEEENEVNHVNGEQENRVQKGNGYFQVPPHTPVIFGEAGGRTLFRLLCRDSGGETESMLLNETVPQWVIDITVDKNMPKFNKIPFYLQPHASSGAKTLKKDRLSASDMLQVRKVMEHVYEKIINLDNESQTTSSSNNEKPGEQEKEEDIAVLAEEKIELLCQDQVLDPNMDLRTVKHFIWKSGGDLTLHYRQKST

`CC(C)c1ccccc1-c1ncc2[nH]c(=O)n(Cc3ccc(C(=O)N(C)C(C)C)cc3)c2n1` [Compound I-375, N-isopropyl-4-((2-(2-isopropylphenyl)-8-oxo-7,8-dihydro-9H-purin-9-yl)methyl)-N-methylbenzamide] was tested, and the IC50 was under 50 nM.
For `CC(C)c1ccccc1-c1ncc2[nH]c(=O)n(Cc3ccc(C(=O)N(C)CCO)cc3)c2n1` [Compound I-376, N-(2-hydroxyethyl)-4-((2-(2-isopropylphenyl)-8-oxo-7,8-dihydro-9H-purin-9-yl)methyl)-N-methylbenzamide], the IC50 was 200 to 2000 nM.
`CC(C)c1ccccc1-c1ncc2[nH]c(=O)n(Cc3ccc(C(=O)N4CC(O)C4)cc3)c2n1` [Compound I-377, 9-(4-(3-hydroxyazetidine-1-carbonyl)benzyl)-2-(2-isopropylphenyl)-7,9-dihydro-8H-purin-8-one] was tested, and the IC50 was over 2000 nM.
`CC(C)c1ccccc1-c1ncc2[nH]c(=O)n(Cc3ccc(C(=O)N4CC[C@H](O)C4)cc3)c2n1` [Compound I-378, (S)-9-(4-(3-hydroxypyrrolidine-1-carbonyl)benzyl)-2-(2-isopropylphenyl)-7,9-dihydro-8H-purin-8-one] was tested, and the IC50 was 200 to 2000 nM.
`CC(C)c1ccccc1-c1ncc2[nH]c(=O)n(Cc3ccc(C(=O)N(C)C4CC4)cc3)c2n1` [Compound I-379, N-cyclopropyl-4-((2-(2-isopropylphenyl)-8-oxo-7,8-dihydro-9H-purin-9-yl)methyl)-N-methylbenzamide] was tested, and the IC50 was under 50 nM.
For `CC(C)c1ccccc1-c1ncc2[nH]c(=O)n(Cc3ccc(C(=O)N(C)CC(=O)N(C)C)cc3)c2n1` [Compound I-380, N-(2-(dimethylamino)-2-oxoethyl)-4-((2-(2-isopropylphenyl)-8-oxo-7,8-dihydro-9H-purin-9-yl)methyl)-N-methylbenzamide], the IC50 was 50 to 200 nM.
`CC(C)c1ccccc1-c1ncc2[nH]c(=O)n(Cc3ccc(C(=O)NC4COC4)cc3)c2n1` [Compound I-381, 4-((2-(2-isopropylphenyl)-8-oxo-7,8-dihydro-9H-purin-9-yl)methyl)-N-(oxetan-3-yl)benzamide] gave an IC50 of 200 to 2000 nM.
`CC(C)c1ccccc1-c1ncc2[nH]c(=O)n(Cc3ccc(C(=O)N4CCC[C@H]4CO)cc3)c2n1` [Compound I-382, (S)-9-(4-(2-(hydroxymethyl)pyrrolidine-1-carbonyl)benzyl)-2-(2-isopropylphenyl)-7,9-dihydro-8H-purin-8-one] showed an IC50 of 200 to 2000 nM.
Work on `CC(=O)N1CCN(C(=O)c2ccc(Cn3c(=O)[nH]c4cnc(-c5ccccc5C(C)C)nc43)cc2)CC1` [Compound I-383, 9-(4-(4-acetylpiperazine-1-carbonyl)benzyl)-2-(2-isopropylphenyl)-7,9-dihydro-8H-purin-8-one] yielded an IC50 of 200 to 2000 nM.
`COCCO[C@H]1CCN(C(=O)c2ccc(Cn3c(=O)[nH]c4cnc(-c5ccccc5C(C)C)nc43)cc2)C1` [Compound I-384, (S)-2-(2-isopropylphenyl)-9-(4-(3-(2-methoxyethoxy)pyrrolidine-1-carbonyl)benzyl)-7,9-dihydro-8H-purin-8-one] gave an IC50 of 200 to 2000 nM.
`CC(C)c1ccccc1-c1ncc2[nH]c(=O)n(Cc3ccc(C(=O)N4C[C@@H](C)O[C@@H](C)C4)cc3)c2n1` [Compound I-385, 9-(4-((2R,6S)-2,6-dimethylmorpholine-4-carbonyl)benzyl)-2-(2-isopropylphenyl)-7,9-dihydro-8H-purin-8-one] gave an IC50 of 50 to 200 nM.
With `CC(C)c1ccccc1-c1ncc2[nH]c(=O)n(Cc3ccc(C(=O)N4CC(F)C4)cc3)c2n1` [Compound I-386, 9-(4-(3-fluoroazetidine-1-carbonyl)benzyl)-2-(2-isopropylphenyl)-7,9-dihydro-8H-purin-8-one] the IC50 was 50 to 200 nM.
`CC(C)c1ccccc1-c1ncc2[nH]c(=O)n(Cc3ccc(C(=O)N[C@@H]4CCC[C@@H]4O)cc3)c2n1` [Compound I-387, N-((1R,2S)-2-hydroxycyclopentyl)-4-((2-(2-isopropylphenyl)-8-oxo-7,8-dihydro-9H-purin-9-yl)methyl)benzamide] showed an IC50 of 50 to 200 nM.
`CC(C)c1ccccc1-c1ncc2[nH]c(=O)n(Cc3ccc(C(=O)N4CCC(F)(F)CC4)cc3)c2n1` [Compound I-388, 9-(4-(4,4-difluoropiperidine-1-carbonyl)benzyl)-2-(2-isopropylphenyl)-7,9-dihydro-8H-purin-8-one] was tested, and the IC50 was 200 to 2000 nM.
Work on `CC(C)c1ccccc1-c1ncc2[nH]c(=O)n(Cc3ccc(C(=O)N4CCCC4)cc3)c2n1` [Compound I-389, 2-(2-isopropylphenyl)-9-(4-(pyrrolidine-1-carbonyl)benzyl)-7,9-dihydro-8H-purin-8-one] yielded an IC50 of under 50 nM.
`CC(C)c1ccccc1-c1ncc2[nH]c(=O)n(Cc3ccc(C(=O)N4CCCC4C)cc3)c2n1` (stereo not drawn) [Compound I-390, 2-(2-isopropylphenyl)-9-(4-(2-methylpyrrolidine-1-carbonyl)benzyl)-7,9-dihydro-8H-purin-8-one] gave an IC50 of under 50 nM.
`COCC1(N(C)C(=O)c2ccc(Cn3c(=O)[nH]c4cnc(-c5ccccc5C(C)C)nc43)cc2)CC1` [Compound I-391, 4-((2-(2-isopropylphenyl)-8-oxo-7,8-dihydro-9H-purin-9-yl)methyl)-N-(1-(methoxymethyl)cyclopropyl)-N-methylbenzamide] gave an IC50 of under 50 nM.
`CC(C)c1ccccc1-c1ncc2[nH]c(=O)n(Cc3ccc(C(=O)N4CCC(F)(F)C4)cc3)c2n1` [Compound I-392, 9-(4-(3,3-difluoropyrrolidine-1-carbonyl)benzyl)-2-(2-isopropylphenyl)-7,9-dihydro-8H-purin-8-one] gave an IC50 of under 50 nM.
With `CC(C)c1ccccc1-c1ncc2[nH]c(=O)n(Cc3ccc(C(=O)N4CC5(CCCO5)C4)cc3)c2n1` [Compound I-393, 9-(4-(5-oxa-2-azaspiro[3.4]octane-2-carbonyl)benzyl)-2-(2-isopropylphenyl)-7,9-dihydro-8H-purin-8-one] the IC50 was 200 to 2000 nM.
With `CC(C)c1ccccc1-c1ncc2[nH]c(=O)n(Cc3ccc(C(=O)N4CC5(CCOC5)C4)cc3)c2n1` [Compound I-394, 9-(4-(6-oxa-2-azaspiro[3.4]octane-2-carbonyl)benzyl)-2-(2-isopropylphenyl)-7,9-dihydro-8H-purin-8-one] the IC50 was 200 to 2000 nM.
`CC(C)c1ccccc1-c1ncc2[nH]c(=O)n(Cc3ccc(C(=O)N4CCC[C@@H]4C)cc3)c2n1` [Compound I-395, (S)-2-(2-isopropylphenyl)-9-(4-(2-methylpyrrolidine-1-carbonyl)benzyl)-7,9-dihydro-8H-purin-8-one] was tested, and the IC50 was under 50 nM.
In the case of `COC[C@@H]1CCCN1C(=O)c1ccc(Cn2c(=O)[nH]c3cnc(-c4ccccc4C(C)C)nc32)cc1` [Compound I-396, (S)-2-(2-isopropylphenyl)-9-(4-(2-(methoxymethyl)pyrrolidine-1-carbonyl)benzyl)-7,9-dihydro-8H-purin-8-one], the IC50 is reported as 200 to 2000 nM.
`CCC1CCCCN1C(=O)c1ccc(Cn2c(=O)[nH]c3cnc(-c4ccccc4C(C)C)nc32)cc1` (stereo not drawn) [Compound I-397, 9-(4-(2-ethylpiperidine-1-carbonyl)benzyl)-2-(2-isopropylphenyl)-7,9-dihydro-8H-purin-8-one] was tested, and the IC50 was under 50 nM.
Work on `CC(C)c1ccccc1-c1ncc2[nH]c(=O)n(Cc3ccc(C(=O)N4CCCCC4C)cc3)c2n1` (stereo not drawn) [Compound I-398, 2-(2-isopropylphenyl)-9-(4-(2-methylpiperidine-1-carbonyl)benzyl)-7,9-dihydro-8H-purin-8-one] yielded an IC50 of under 50 nM.
Compound `CC1CCCN(C(=O)c2ccc(Cn3c(=O)[nH]c4cnc(-c5ccccc5C(C)C)nc43)cc2)C1` (stereo not drawn) [Compound I-399, 2-(2-isopropylphenyl)-9-(4-(3-methylpiperidine-1-carbonyl)benzyl)-7,9-dihydro-8H-purin-8-one] has an IC50 of under 50 nM.
`COCC1CCCCN1C(=O)c1ccc(Cn2c(=O)[nH]c3cnc(-c4ccccc4C(C)C)nc32)cc1` (stereo not drawn) [Compound I-400, 2-(2-isopropylphenyl)-9-(4-(2-(methoxymethyl)piperidine-1-carbonyl)benzyl)-7,9-dihydro-8H-purin-8-one] was tested, and the IC50 was 50 to 200 nM.
Compound `COC1CCCN(C(=O)c2ccc(Cn3c(=O)[nH]c4cnc(-c5ccccc5C(C)C)nc43)cc2)C1` (stereo not drawn) [Compound I-401, 2-(2-isopropylphenyl)-9-(4-(3-methoxypiperidine-1-carbonyl)benzyl)-7,9-dihydro-8H-purin-8-one] has an IC50 of 50 to 200 nM.
With `CC(C)c1ccccc1-c1ncc2[nH]c(=O)n(Cc3ccc(C(=O)N(C)C4CCOC4)cc3)c2n1` (stereo not drawn) [Compound I-402, 4-((2-(2-isopropylphenyl)-8-oxo-7,8-dihydro-9H-purin-9-yl)methyl)-N-methyl-N-(tetrahydrofuran-3-yl)benzamide] the IC50 was 200 to 2000 nM.
`COC[C@H]1CCCN1C(=O)c1ccc(Cn2c(=O)[nH]c3cnc(-c4ccccc4C(C)C)nc32)cc1` [Compound I-403, (R)-2-(2-isopropylphenyl)-9-(4-(2-(methoxymethyl)pyrrolidine-1-carbonyl)benzyl)-7,9-dihydro-8H-purin-8-one] was tested, and the IC50 was 200 to 2000 nM.
`CC(C)c1ccccc1-c1ncc2[nH]c(=O)n(Cc3ccc(C(=O)N4CCOC[C@H]4C)cc3)c2n1` [Compound I-404, (R)-2-(2-isopropylphenyl)-9-(4-(3-methylmorpholine-4-carbonyl)benzyl)-7,9-dihydro-8H-purin-8-one] was tested, and the IC50 was 200 to 2000 nM.
In the case of `CC(C)c1ccccc1-c1ncc2[nH]c(=O)n(Cc3ccc(C(=O)N4CCOC[C@@H]4C)cc3)c2n1` [Compound I-405, (S)-2-(2-isopropylphenyl)-9-(4-(3-methylmorpholine-4-carbonyl)benzyl)-7,9-dihydro-8H-purin-8-one], the IC50 is reported as 200 to 2000 nM.
`CC(C)c1ccccc1-c1ncc2[nH]c(=O)n(Cc3ccc(C(=O)N(C)CC(F)(F)F)cc3)c2n1` [Compound I-406, 4-((2-(2-isopropylphenyl)-8-oxo-7,8-dihydro-9H-purin-9-yl)methyl)-N-methyl-N-(2,2,2-trifluoroethyl)benzamide] showed an IC50 of 50 to 200 nM.
`COCCN(C)C(=O)c1ccc(Cn2c(=O)[nH]c3cnc(-c4ccccc4C(C)C)nc32)cc1` [Compound I-407, 4-((2-(2-isopropylphenyl)-8-oxo-7,8-dihydro-9H-purin-9-yl)methyl)-N-(2-methoxyethyl)-N-methylbenzamide] showed an IC50 of 50 to 200 nM.
